According to paper PMC8206213, “An L-2-hydroxyglutarate biosensor based on specific transcriptional regulator LhgR” (Nature Communications, 2021):
Where “and” joins values, the source holds several entries; their conditions need not be identical. Identical values can stand only once.

Assays:
[1] = Dose-response of purified LHGFR and its variants for L-2-HG in 50 mM Tris-HCl buffer (pH 7.4), Venus/mTFP emission ratio; assay type: binding
Method: Purified L-2-HG biosensors and different compounds were diluted by 50 mM Tris-HCl buffer (pH 7.4), mixed together in a black 96-well plate at a volume ratio of 3:1, and the fluorescence intensities were measured using an EnSight microplate reader (PerkinElmer, USA) with excitation at 430 nm, emission at 485 nm (mTFP) and 528 nm (Venus). The dose-response curves were fitted by OriginPro 2016 software (OriginLab) according to the following formula:1 R=Rmax+Rmin−Rmax/1+([L-2-HG]/Kd)^p where R, Rmin, and Rmax refer to the emission ratio of Venus to mTFP, ratio in the absence of L-2-HG, and ratio at saturation with L-2-HG, respectively. The [L-2-HG], Kd, and p refer to the L-2-HG concentration, apparent dissociation constant, and Hill slope, respectively. Emission spectra were recorded at 430 nm excitation, in steps of 2 nm. Excitation spectra were recorded using emission at 550 nm, excitation from 380 to 535 nm in steps of 2 nm.

[2] = tested on: LhgR; assay: EMSA, effect of compounds on LhgR binding to the lhgR promoter region F2; parameters: species or system Pseudomonas putida W619; details: 30 mM compound, 10 nM F2, 70 nM LhgR
Method: Electrophoretic mobility shift assays (EMSAs) were carried out using the DNA fragment (F1 or F2) and purified LhgR. The DNA fragments were first amplified by primer pairs F1-F/F1-R and F2-F/F2-R, respectively. Then, either fragment at a concentration of 10 nM DNA was incubated with LhgR (0–160 nM) in 20 μL EMSA binding buffer (10 mM Tris-HCl [pH 7.4], 50 mM KCl, 0.5 mM EDTA, 10% [vol/vol] glycerol, and 1 mM dithiothreitol [DTT]). The binding reactions were carried out at 30 °C for 30 min. Electrophoresis was performed on 6% native polyacrylamide gels at 4 °C and 170 V (constant voltage) for about 45 min, followed by staining with SYBR green I (TaKaRa, China) and photographing. Analysis of the interaction between lhgO promoter region (F1) and LHGFR was performed using the same procedure.
To characterize the effector of LhgR, purified LhgR was first incubated with L-lysine, 5-aminovalerate, glutarate, L-2-HG, D-2-HG, 2-KG, or succinate at 30 °C for 15 min, followed by incubation with the added DNA fragments at 30 °C for 30 min. The mixtures were subsequently subjected to electrophoresis.

With O=C(O)CC[C@H](O)C(=O)O [L-2-HG, L-2-Hydroxyglutarate] the “Emission ratio of 528/485” value ([1]; For L-2-HG, 2-HG concentration 2000, Suppl. Fig. 9d) was 2.667 and 2.655 and 2.697, the “Emission ratio of 528/485” value ([1]; Supplementary Fig. 6a, L-2-HG concentration 0.01) was 1.3857 and 1.387 and 1.404 and the “Emission ratio of 528/485” value ([1]; Supplementary Fig. 6a, L-2-HG concentration 0.1) was 1.381 and 1.392 and 1.391. For the same molecule, the “Emission ratio of 528/485” value ([1]; Supplementary Fig. 6a, L-2-HG concentration 0.2) was 1.397 and 1.394 and 1.401, the “Emission ratio of 528/485” value ([1]; Supplementary Fig. 6a, L-2-HG concentration 1) was 1.392 and 1.412 and 1.423 and the “Emission ratio of 528/485” value ([1]; Supplementary Fig. 6a, L-2-HG concentration 2) was 1.425 and 1.451 and 1.463. The “Emission ratio of 528/485” value ([1]; Supplementary Fig. 6a, L-2-HG concentration 10) was 1.602 and 1.628 and 1.623, the “Emission ratio of 528/485” value ([1]; Supplementary Fig. 6a, L-2-HG concentration 20) was 1.712 and 1.7343 and 1.752 and the “Emission ratio of 528/485” value ([1]; Supplementary Fig. 6a, L-2-HG concentration 100) was 1.988 and 1.973 and 1.992. For the same molecule, the “Emission ratio of 528/485” value ([1]; Supplementary Fig. 6a, L-2-HG concentration 200) was 2.0666 and 2.05 and 2.077, the “Emission ratio of 528/485” value ([1]; Supplementary Fig. 6a, L-2-HG concentration 1000) was 2.162 and 2.183 and 2.153 and the “Emission ratio of 528/485” value ([1]; Supplementary Fig. 6a, L-2-HG concentration 2000) was 2.173 and 2.178 and 2.17. The “Emission ratio of 528/485” value ([1]; Supplementary Fig. 6b, L-2-HG concentration 0.01) was 1.79 and 1.921 and 1.894, the “Emission ratio of 528/485” value ([1]; Supplementary Fig. 6b, L-2-HG concentration 0.1) was 1.777 and 1.91 and 1.94 and the “Emission ratio of 528/485” value ([1]; Supplementary Fig. 6b, L-2-HG concentration 1) was 2.057 and 2.207 and 2.255. The “Emission ratio of 528/485” value ([1]; Supplementary Fig. 6b, L-2-HG concentration 2) was 2.268 and 2.379 and 2.449, the “Emission ratio of 528/485” value ([1]; Supplementary Fig. 6b, L-2-HG concentration 10) was 2.5843 and 2.787 and 2.825 and the “Emission ratio of 528/485” value ([1]; Supplementary Fig. 6b, L-2-HG concentration 20) was 2.72 and 2.88 and 2.892. For the same molecule, the “Emission ratio of 528/485” value ([1]; Supplementary Fig. 6b, L-2-HG concentration 100) was 2.76 and 2.892 and 2.986, the “Emission ratio of 528/485” value ([1]; Supplementary Fig. 6b, L-2-HG concentration 1000) was 2.847 and 2.935 and 2.998 and the “Emission ratio of 528/485” value ([1]; Supplementary Fig. 6b, L-2-HG concentration 2000) was 2.912 and 2.995 and 3.032. For the same molecule, the “Emission ratio of 528/485” value ([1]; Supplementary Fig. 6c, L-2-HG concentration 0.01) was 1.881 and 1.865 and 1.887, the “Emission ratio of 528/485” value ([1]; Supplementary Fig. 6c, L-2-HG concentration 0.1) was 1.869 and 1.918 and 1.908 and the “Emission ratio of 528/485” value ([1]; Supplementary Fig. 6c, L-2-HG concentration 1) was 2.144 and 2.182 and 2.149. The “Emission ratio of 528/485” value ([1]; Supplementary Fig. 6c, L-2-HG concentration 2) was 2.3419 and 2.384 and 2.402, the “Emission ratio of 528/485” value ([1]; Supplementary Fig. 6c, L-2-HG concentration 10) was 2.743 and 2.7667 and 2.84 and the “Emission ratio of 528/485” value ([1]; Supplementary Fig. 6c, L-2-HG concentration 20) was 2.846 and 2.91 and 2.871. For the same molecule, the “Emission ratio of 528/485” value ([1]; Supplementary Fig. 6c, L-2-HG concentration 100) was 2.914 and 2.957 and 2.953, the “Emission ratio of 528/485” value ([1]; Supplementary Fig. 6c, L-2-HG concentration 1000) was 2.894 and 2.9819 and 2.963 and the “Emission ratio of 528/485” value ([1]; Supplementary Fig. 6c, L-2-HG concentration 2000) was 2.899 and 2.986 and 2.9894. For the same molecule, the “Emission ratio of 528/485” value ([1]; Supplementary Fig. 6e, L-2-HG concentration 0.01) was 1.655 and 1.676 and 1.693, the “Emission ratio of 528/485” value ([1]; Supplementary Fig. 6e, L-2-HG concentration 0.1) was 1.641 and 1.674 and 1.689 and the “Emission ratio of 528/485” value ([1]; Supplementary Fig. 6e, L-2-HG concentration 0.2) was 1.675 and 1.688 and 1.698. The “Emission ratio of 528/485” value ([1]; Supplementary Fig. 6e, L-2-HG concentration 1) was 1.753 and 1.778 and 1.797, the “Emission ratio of 528/485” value ([1]; Supplementary Fig. 6e, L-2-HG concentration 2) was 1.892 and 1.897 and 1.889 and the “Emission ratio of 528/485” value ([1]; Supplementary Fig. 6e, L-2-HG concentration 10) was 2.254 and 2.242 and 2.288. For the same molecule, the “Emission ratio of 528/485” value ([1]; Supplementary Fig. 6e, L-2-HG concentration 20) was 2.359 and 2.347 and 2.363, the “Emission ratio of 528/485” value ([1]; Supplementary Fig. 6e, L-2-HG concentration 100) was 2.568 and 2.652 and 2.688 and the “Emission ratio of 528/485” value ([1]; Supplementary Fig. 6e, L-2-HG concentration 200) was 2.563 and 2.676 and 2.688. For the same molecule, the “Emission ratio of 528/485” value ([1]; Supplementary Fig. 6e, L-2-HG concentration 1000) was 2.635 and 2.6341 and 2.632, the “Emission ratio of 528/485” value ([1]; Supplementary Fig. 6e, L-2-HG concentration 2000) was 2.667 and 2.655 and 2.697 and the “Emission ratio of 528/485” value ([1]; Supplementary Fig. 6d, L-2-HG concentration 0.01) was 1.72 and 1.724 and 1.742. The “Emission ratio of 528/485” value ([1]; Supplementary Fig. 6d, L-2-HG concentration 0.1) was 1.742 and 1.747 and 1.746, the “Emission ratio of 528/485” value ([1]; Supplementary Fig. 6d, L-2-HG concentration 1) was 1.865 and 1.88 and 1.882 and the “Emission ratio of 528/485” value ([1]; Supplementary Fig. 6d, L-2-HG concentration 2) was 2.014 and 2.037 and 2.039. For the same molecule, the “Emission ratio of 528/485” value ([1]; Supplementary Fig. 6d, L-2-HG concentration 10) was 2.446 and 2.449 and 2.469, the “Emission ratio of 528/485” value ([1]; Supplementary Fig. 6d, L-2-HG concentration 20) was 2.546 and 2.554 and 2.592 and the “Emission ratio of 528/485” value ([1]; Supplementary Fig. 6d, L-2-HG concentration 100) was 2.59 and 2.651 and 2.67. For the same molecule, the “Emission ratio of 528/485” value ([1]; Supplementary Fig. 6d, L-2-HG concentration 1000) was 2.653 and 2.699 and 2.7087, the “Emission ratio of 528/485” value ([1]; Supplementary Fig. 6d, L-2-HG concentration 2000) was 2.665 and 2.7183 and 2.7325 and the “Effect on LhgR binding to the lhgR promoter region F2” value [2] was “prevent LhgR binding to the lhgR promoter”.
